Emax and EC50 data for 22 compounds are collected here from patent US8119681B2, “2-[1-phenyl-5-hydroxy or methoxy-4alpha-methyl-hexahydrocyclopenta [ƒ]indazole-5-YL]ethyl phenyl derivatives as glucocorticoid receptor ligands” (Merck Sharp & Dohme Corp., priority 2006, dated 2012).

The target of the assay is T1, human GR (Homo sapiens, UniProt P04150).
T1 sequence (P04150 1-777): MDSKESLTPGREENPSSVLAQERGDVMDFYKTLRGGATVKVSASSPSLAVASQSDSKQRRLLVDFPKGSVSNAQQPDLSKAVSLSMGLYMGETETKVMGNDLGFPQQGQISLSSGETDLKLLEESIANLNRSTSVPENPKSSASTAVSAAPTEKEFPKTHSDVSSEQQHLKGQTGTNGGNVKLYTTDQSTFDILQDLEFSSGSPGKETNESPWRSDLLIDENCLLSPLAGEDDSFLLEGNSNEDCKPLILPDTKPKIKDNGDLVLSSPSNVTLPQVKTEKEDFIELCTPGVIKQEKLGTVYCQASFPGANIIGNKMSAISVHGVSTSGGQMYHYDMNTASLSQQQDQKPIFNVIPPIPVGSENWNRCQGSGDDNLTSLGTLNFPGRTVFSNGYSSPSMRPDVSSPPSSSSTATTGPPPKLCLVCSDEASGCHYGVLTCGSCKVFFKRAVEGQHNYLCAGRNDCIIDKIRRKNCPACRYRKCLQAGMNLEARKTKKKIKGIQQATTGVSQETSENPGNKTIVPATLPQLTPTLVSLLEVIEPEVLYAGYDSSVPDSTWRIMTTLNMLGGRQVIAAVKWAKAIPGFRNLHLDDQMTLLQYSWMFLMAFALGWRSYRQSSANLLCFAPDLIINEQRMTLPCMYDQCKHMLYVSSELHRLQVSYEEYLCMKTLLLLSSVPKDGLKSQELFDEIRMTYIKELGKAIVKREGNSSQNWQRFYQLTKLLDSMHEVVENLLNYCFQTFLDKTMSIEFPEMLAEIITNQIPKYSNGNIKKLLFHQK
The experiment in a line: Trans-Activation Modulation of Glucocorticoid Receptor (GRAMMER), MMTV-LUC reporter gene. In kind it is cell-based. The arrangement: endogenous in cells. The conditions noted are these: for Emax: A549, read-out: Transactivation A549 Cells GRAMMER Emax (%); for EC50: Table 1, A549 cells, IP = inflection point, read-out: Transactivation A549 Cells GRAMMER IP. For orientation: Reporter assays use an easily measured gene product as a stand-in for the process of interest.

SMILES strings stand for the structures.

What is called Emax is the size of the effect at its maximum, as opposed to the concentration needed.

Take `CN(C)S(=O)(=O)c1ccccc1CC[C@]1(O)CCC2=Cc3c(cnn3-c3ccc(F)cc3)C[C@@]21C` [Example 138, 2-{2-[(4αS,5R)-1-(4-fluorophenyl)-5-hydroxy-4α-methyl-1,4,4α,5,6,7-hexahydrocyclopenta[f]indazol-5-yl]ethyl}-N,N-dimethylbenzenesulfonamide]: the Emax is 55% and the EC50 was found to be 137 nM.
For `CCS(=O)(=O)c1ccccc1CC[C@]1(O)CCC2=Cc3c(cnn3-c3ccc(F)cc3)C[C@@]21C` [Example 143, (4αS,5R)-5-{2-[2-(ethylsulfonyl)phenyl]ethyl}-1-(4-fluorophenyl)-4α-methyl-1,4,4α,5,6,7-hexahydrocyclopenta[f]indazol-5-ol] the same measures were 41% and 118 nM.
Taken in the same sequence, the figures for `C[C@]12Cc3cnn(-c4ccc(F)cc4)c3C=C1CC[C@@]2(O)CCc1ccccc1S(=O)(=O)C1CC1` [Example 144, (4αS,5R)-5-{2-[2-(cyclopropylsulfonyl)phenyl]ethyl}-1-(4-fluorophenyl)-4α-methyl-1,4,4α,5,6,7-hexahydrocyclopenta[f]indazol-5-ol] were 40% and 268 nM.
As to `C[C@]12Cc3cnn(-c4ccc(F)cc4)c3C=C1CC[C@@]2(O)CCc1cccc(F)c1CO` [Example 148, (4αS,5R)-5-{2-[3-fluoro-2-(hydroxymethyl)phenyl]ethyl}-1-(4-fluorophenyl)-4α-methyl-1,4,4α,5,6,7-hexahydrocyclopenta[f]indazol-5-ol], the Emax is 57% and the EC50 was 43 nM.
With `C[C@]12Cc3cnn(-c4ccc(F)cc4)c3C=C1CC[C@@]2(O)CCc1cccc(F)c1[C@H](N)C(F)(F)F` [Example 151, (4αS,5R)-5-(2-{2-[(1S)-1-amino-2,2,2-trifluoroethyl]-3-fluorophenyl}ethyl)-1-(4-fluorophenyl)-4α-methyl-1,4,4α,5,6,7-hexahydrocyclopenta[f]indazol-5-ol], the Emax was 43% and the EC50 was 170 nM.
Turning to `C[C@]12Cc3cnn(-c4ccc(F)cc4)c3C=C1CC[C@@]2(O)CCc1cccc(F)c1[C@@H](N)C(F)(F)F` [Example 152, (4αS,5R)-5-(2-{2-[(1R)-1-amino-2,2,2-trifluoroethyl]-3-fluorophenyl}ethyl)-1-(4-fluorophenyl)-4α-methyl-1,4,4α,5,6,7-hexahydrocyclopenta[f]indazol-5-ol], the Emax stood at 44% and the EC50 turned out to be 223 nM.
Taken in the same sequence, the figures for `C[C@]12Cc3cnn(-c4ccc(F)cc4)c3C=C1CC[C@@]2(O)CCc1ccccc1C(=O)N1CC(=O)C1` [Example 156, 1-(2-{2-[(4αS,5R)-1-(4-fluorophenyl)-5-hydroxy-4α-methyl-1,4,4α,5,6,7-hexahydrocyclopenta[f]indazol-5-yl]ethyl}benzoyl)azetidin-3-one] were 47% and 278 nM.
Taken in the same sequence, the figures for `CC(=O)Cc1ccccc1CC[C@]1(O)CCC2=Cc3c(cnn3-c3ccc(F)cc3)C[C@@]21C` [Example 157, 1-(2-{2-[(4αS,5R)-1-(4-fluorophenyl)-5-hydroxy-4α-methyl-1,4,4α,5,6,7-hexahydrocyclopenta[f]indazol-5-yl]ethyl}phenyl)acetone] were 45% and 240 nM.
In the case of `C[C@]12Cc3cnn(-c4ccc(F)cc4)c3C=C1CC[C@@]2(O)CCc1ccc(F)cc1C(N)=O` [Example 159, 5-fluoro-2-{2-[(4αS,5R)-1-(4-fluorophenyl)-5-hydroxy-4α-methyl-1,4,4α,5,6,7-hexahydrocyclopenta[f]indazol-5-yl]ethyl}benzamide], the Emax amounted to 37% and the EC50 worked out at 197 nM.
Regarding `C[C@]12Cc3cnn(-c4ccc(F)cc4)c3C=C1CC[C@@]2(O)/C=C/c1ccccc1S(N)(=O)=O` [Example 160, 2-{(E)-2-[(4αS,5R)-1-(4-fluorophenyl)-5-hydroxy-4α-methyl-1,4,4α,5,6,7-hexahydrocyclopenta[f]indazol-5-yl]vinyl}benzenesulfonamide], the EC50 was determined as 118 nM.
As to `C[C@]12Cc3cnn(-c4ccc(F)cc4)c3C=C1CC[C@@]2(O)CCc1ccc(F)cc1C#N` [Example 163, 5-fluoro-2-{2-[(4αS,5R)-1-(4-fluorophenyl)-5-hydroxy-4α-methyl-1,4,4α,5,6,7-hexahydrocyclopenta[f]indazol-5-yl]ethyl}benzonitrile], the maximal effect (Emax) was 48% and the EC50 is 103 nM.
Take `C[C@]12Cc3cnn(-c4ccc(F)c(F)c4)c3C=C1CC[C@@]2(O)CCc1cccc(F)c1C(N)=O` [Example 168, 2-{2-[(4α,5R)-1-(3,4-difluorophenyl)-5-hydroxy-4α-methyl-1,4,4α,5,6,7-hexahydrocyclopenta[f]indazol-5-yl]ethyl}-6-fluorobenzamide]: the maximal response (Emax) is 58% and the EC50 was found to be 53 nM.
For `C[C@]12Cc3cnn(-c4ccc(F)cc4)c3C=C1CC[C@@]2(O)CCc1ccc(Cl)cc1C(N)=O` [Example 170, 5-chloro-2-{2-[(4αS,5R)-1-(4-fluorophenyl)-5-hydroxy-4α-methyl-1,4,4α,5,6,7-hexahydrocyclopenta[f]indazol-5-yl]ethyl}benzamide] the same measures were 24% and 234 nM.
In the case of `C[C@]12Cc3cnn(-c4ccc(F)c(F)c4)c3C=C1CC[C@@]2(O)CCc1ccccc1C(N)=O` [Example 172, 2-{2-[(4αS,5R)-1-(3,4-difluorophenyl)-5-hydroxy-4α-methyl-1,4,4α,5,6,7-hexahydrocyclopenta[f]indazol-5-yl]ethyl}benzamide], the maximal effect (Emax) was determined as 41% and the EC50 stood at 162 nM.
Consider `Cc1ccc(C(N)=O)c(CC[C@]2(O)CCC3=Cc4c(cnn4-c4ccc(F)cc4)C[C@@]32C)c1` [Example 174, 2-{2-[(4αS,5R)-1-(4-fluorophenyl)-5-hydroxy-4α-methyl-1,4,4α,5,6,7-hexahydrocyclopenta[f]indazol-5-yl]ethyl}-4-methylbenzamide], for which the maximum response (Emax) was found to be 36% and the EC50 worked out at 147 nM.
As for `C[C@]12Cc3cnn(-c4ccc(Cl)cc4)c3C=C1CC[C@@]2(O)CCc1cccc(F)c1C(N)=O` [Example 185, 2-{2-[(4αS,5R)-1-(4-chlorophenyl)-5-hydroxy-4α-methyl-1,4,4α,5,6,7-hexahydrocyclopenta[f]indazol-5-yl]ethyl}-6-fluorobenzamide], the maximum response (Emax) turned out to be 39% and the EC50 is 144 nM.
For `COc1cccc(CC[C@]2(O)CCC3=Cc4c(cnn4-c4ccc(F)cc4)C[C@@]32C)c1C(N)=O` [Example 189, 2-{2-[(4αS,5R)-1-(4-fluorophenyl)-5-hydroxy-4α-methyl-1,4,4α,5,6,7-hexahydrocyclopenta[f]indazol-5-yl]ethyl}-6-methoxybenzamide] the same measures were 49% and 28 nM.
As for `Cc1cccc(CC[C@]2(O)CCC3=Cc4c(cnn4-c4cccc(F)c4)C[C@@]32C)c1C(N)=O` [Example 191, 2-{2-[(4αS,5R)-1-(3-fluorophenyl)-5-hydroxy-4α-methyl-1,4,4α,5,6,7-hexahydrocyclopenta[f]indazol-5-yl]ethyl}-6-methylbenzamide], the maximal response (Emax) came out at 49% and the EC50 came out at 55 nM.
`C[C@]12Cc3cnn(-c4ccc(F)cc4)c3C=C1CC[C@@]2(O)CCc1cccc(F)c1CC(N)=O` [Example 194, 2-(2-fluoro-6-{2-[(4αS,5R)-1-(4-fluorophenyl)-5-hydroxy-4α-methyl-1,4,4α,5,6,7-hexahydrocyclopenta[f]indazol-5-yl]ethyl}phenyl)acetamide]: the maximal response (Emax) turned out to be 38% and the EC50 came out at 99 nM.
For `C[C@]12Cc3cnn(-c4ccc(F)cc4)c3C=C1CC[C@@]2(O)CCc1cccc(Cl)c1CC(N)=O` [Example 197, 2-(2-chloro-6-{2-[(4αS,5R)-1-(4-fluorophenyl)-5-hydroxy-4α-methyl-1,4,4α,5,6,7-hexahydrocyclopenta[f]indazol-5-yl]ethyl}phenyl)acetamide] the same measures were 46% and 249 nM.
Taken in the same sequence, the figures for `CCC(O)(C(N)=O)c1ccccc1CC[C@]1(O)CCC2=Cc3c(cnn3-c3ccc(F)cc3)C[C@@]21C` (stereo partly drawn) [Example 199, 2-(2-{2-[(4αS,5R)-1-(4-fluorophenyl)-5-hydroxy-4α-methyl-1,4,4α,5,6,7-hexahydrocyclopenta[f]indazol-5-yl]ethyl}phenyl)-2-hydroxybutanamide] were 36% and 83 nM.
With `CC(C)C(O)(C(N)=O)c1ccccc1CC[C@]1(O)CCC2=Cc3c(cnn3-c3ccc(F)cc3)C[C@@]21C` (stereo partly drawn) [Example 201, 2-(2-{2-[(4αS,5R)-1-(4-fluorophenyl)-5-hydroxy-4α-methyl-1,4,4α,5,6,7-hexahydrocyclopenta[f]indazol-5-yl]ethyl}phenyl)-2-hydroxy-3-methylbutanamide], the maximal effect (Emax) was determined as 40% and the EC50 amounted to 47 nM.
